Laboratory results from PubChem BioAssay AID256 (DTP/NCI, 2004).
Toxic doses and inconclusive results are not listed. How the source made its calls: active means survival T/C of 150% or more; inactive means T/C below 125% in these data.

Test system: CD2F1 mice, L1210 leukemia ip, survival T/C
Assay: NCI In Vivo Anticancer Drug Screen. Data for tumor model L1210 Leukemia (intraperitoneal) in CD2F1 (CDF1) mice
Details: higher = longer survival
Summary of the method: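 Compound-dosed mice with transplantable tumor versus matched vehicle controls; endpoint ratio T/C reported.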

[1] = endpoint: mean survival time, dose: 100.0 mg/kg/injection, schedule: Q01DX009 (ip), vehicle: saline with Tween-80
[2] = endpoint: mean survival time, dose: 100.0 mg/kg/injection, schedule: Q04DX003 (ip), vehicle: saline with Tween-80
[3] = endpoint: mean survival time, dose: 200.0 mg/kg/injection, schedule: Q01DX009 (ip), vehicle: saline with Tween-80
[4] = endpoint: mean survival time, dose: 200.0 mg/kg/injection, schedule: Q04DX003 (ip), vehicle: saline with Tween-80
[5] = endpoint: mean survival time, dose: 400.0 mg/kg/injection, schedule: Q01DX009 (ip), vehicle: saline with Tween-80
[6] = endpoint: mean survival time, dose: 400.0 mg/kg/injection, schedule: Q04DX003 (ip), vehicle: saline with Tween-80
[7] = endpoint: mean survival time, dose: 50.0 mg/kg/injection, schedule: Q01DX009 (ip), vehicle: saline with Tween-80
[8] = endpoint: mean survival time, dose: 12.5 mg/kg/injection, schedule: Q01DX009 (ip), vehicle: saline with Tween-80
[9] = endpoint: mean survival time, dose: 25.0 mg/kg/injection, schedule: Q01DX009 (ip), vehicle: saline with Tween-80
[10] = endpoint: mean survival time, dose: 100.0 mg/kg/injection, schedule: Q01DX009 (ip), vehicle: saline
[11] = endpoint: mean survival time, dose: 200.0 mg/kg/injection, schedule: Q01DX009 (ip), vehicle: saline
[12] = endpoint: mean survival time, dose: 400.0 mg/kg/injection, schedule: Q01DX009 (ip), vehicle: saline

Measured: T/C

Cc1nc2c(c(=O)[nH]1)C(c1ccccc1)C(C)(C)O2 (centres undefined)
inactive: [1] 96 % of control | [2] 93 % of control | [3] 93 % of control | [4] 96 % of control | [5] 93 % of control | [6] 93 % of control

CC(=O)Nc1ccc(/C=N\NC(=O)CNC(=O)Nc2ccc(F)cc2)cc1
inactive: [7] 96 % of control | [1] 96 % of control

COC(=O)COc1cccc(NC(=O)CC(=O)c2cccc([N+](=O)[O-])c2)c1
inactive: endpoint: mean survival time, dose: 100.0 mg/kg/injection, schedule: Q01DX009 (ip), vehicle: Klucel (hydroxypropylcellulose) (HPC) 98 % of control | [2] 101 % of control | endpoint: mean survival time, dose: 200.0 mg/kg/injection, schedule: Q01DX009 (ip), vehicle: Klucel (hydroxypropylcellulose) (HPC) 97 % of control | [4] 98 % of control | endpoint: mean survival time, dose: 400.0 mg/kg/injection, schedule: Q01DX009 (ip), vehicle: Klucel (hydroxypropylcellulose) (HPC) 96 % of control | [6] 93 % of control

C[Si](C)(C)Oc1c(Cl)cc(Cl)cc1Cl
inactive: [1] 100 % of control | [3] 91 % of control | [5] 87 % of control

O=C1C(Cl)=C(NCc2ccc(Cl)cc2)C(=O)c2ccccc21
inactive: endpoint: mean survival time, dose: 25.0 mg/kg/injection, schedule: Q04DX003 (ip), vehicle: saline with Tween-80 102 % of control | endpoint: mean survival time, dose: 50.0 mg/kg/injection, schedule: Q04DX003 (ip), vehicle: saline with Tween-80 91 % of control | [2] 91 % of control

CC(=O)N/C(=C/c1ccccc1)C(=O)NC(C)(C)C
inactive: [2] 96 % of control | [4] 99 % of control | [6] 89 % of control

N#CC1CCCC1=N (centres undefined)
inactive: [8] 94 % of control | [9] 97 % of control | endpoint: mean survival time, dose: 100.0 mg/kg/injection, schedule: Q01DX001 (ip), vehicle: saline 110 % of control | endpoint: mean survival time, dose: 200.0 mg/kg/injection, schedule: Q01DX001 (ip), vehicle: saline 104 % of control | endpoint: mean survival time, dose: 400.0 mg/kg/injection, schedule: Q01DX001 (ip), vehicle: saline 111 % of control

Cc1cc([N+](=O)[O-])c(Cl)cc1NS(=O)(=O)c1ccccc1
inactive: [7] 103 % of control | [1] 101 % of control | [3] 94 % of control

CC(=O)c1ccc(-c2ccccc2)cc1
inactive: endpoint: mean survival time, dose: 100.0 mg/kg/injection, schedule: Q04DX003 (ip), vehicle: Klucel (hydroxypropylcellulose) (HPC) 102 % of control | endpoint: mean survival time, dose: 200.0 mg/kg/injection, schedule: Q04DX003 (ip), vehicle: Klucel (hydroxypropylcellulose) (HPC) 103 % of control | endpoint: mean survival time, dose: 400.0 mg/kg/injection, schedule: Q04DX003 (ip), vehicle: Klucel (hydroxypropylcellulose) (HPC) 102 % of control

CN(C)CCC(=O)C(=Cc1ccc(O)cc1)C(=O)CCN(C)C
inactive: endpoint: median survival time, dose: 12.5 mg/kg/injection, schedule: Q01DX009 (ip), vehicle: saline 104 % of control | endpoint: median survival time, dose: 25.0 mg/kg/injection, schedule: Q01DX009 (ip), vehicle: saline 101 % of control | endpoint: median survival time, dose: 50.0 mg/kg/injection, schedule: Q01DX009 (ip), vehicle: saline 100 % of control | endpoint: median survival time, dose: 100.0 mg/kg/injection, schedule: Q01DX009 (ip), vehicle: saline 97 % of control | endpoint: median survival time, dose: 200.0 mg/kg/injection, schedule: Q01DX009 (ip), vehicle: saline 97 % of control

COC(=O)CC(=O)CBr
inactive: endpoint: mean survival time, dose: 5.0 mg/kg/injection, schedule: Q01DX001 (ip), vehicle: saline with Tween-80 95 % of control | endpoint: mean survival time, dose: 5.0 mg/kg/injection, schedule: Q01DX009 (ip), vehicle: saline with Tween-80 100 % of control | endpoint: mean survival time, dose: 10.0 mg/kg/injection, schedule: Q01DX001 (ip), vehicle: saline with Tween-80 95 % of control | endpoint: mean survival time, dose: 10.0 mg/kg/injection, schedule: Q01DX009 (ip), vehicle: saline with Tween-80 97 % of control | endpoint: mean survival time, dose: 20.0 mg/kg/injection, schedule: Q01DX001 (ip), vehicle: saline with Tween-80 95 % of control | endpoint: mean survival time, dose: 20.0 mg/kg/injection, schedule: Q01DX009 (ip), vehicle: saline with Tween-80 97 % of control

CCNC(=O)[B-][N+](C)(C)C
inactive: endpoint: median survival time, dose: 12.5 mg/kg/injection, schedule: Q01DX009 (ip), vehicle: Klucel (hydroxypropylcellulose) (HPC) 108 % of control | endpoint: median survival time, dose: 25.0 mg/kg/injection, schedule: Q01DX009 (ip), vehicle: Klucel (hydroxypropylcellulose) (HPC) 106 % of control | endpoint: median survival time, dose: 50.0 mg/kg/injection, schedule: Q01DX009 (ip), vehicle: Klucel (hydroxypropylcellulose) (HPC) 106 % of control | endpoint: median survival time, dose: 100.0 mg/kg/injection, schedule: Q01DX009 (ip), vehicle: Klucel (hydroxypropylcellulose) (HPC) 107 % of control | endpoint: median survival time, dose: 200.0 mg/kg/injection, schedule: Q01DX009 (ip), vehicle: Klucel (hydroxypropylcellulose) (HPC) 106 % of control

NS(N)(=O)=O
inactive: [10] 105 % of control | [11] 100 % of control | [12] 97 % of control

CC(=O)Nc1ccccc1Sc1ccncc1[N+](=O)[O-]
inactive: [1] 100 % of control | [2] 88 % of control | [3] 100 % of control | [4] 92 % of control | [5] 90 % of control | [6] 95 % of control

OC(c1ccccc1)(c1ccccc1)c1ccccc1Cl
inactive: [1] 98 % of control | [3] 101 % of control | [5] 102 % of control

Cc1c(Cl)c(C)c(Cl)c(O)c1Cl
inactive: [1] 96 % of control | [3] 100 % of control | [5] 87 % of control

NCCC(=O)CN
inactive: [10] 110 % of control | endpoint: mean survival time, dose: 100.0 mg/kg/injection, schedule: Q04DX003 (ip), vehicle: saline 100 % of control | [11] 101 % of control | endpoint: mean survival time, dose: 200.0 mg/kg/injection, schedule: Q04DX003 (ip), vehicle: saline 107 % of control | [12] 91 % of control | endpoint: mean survival time, dose: 400.0 mg/kg/injection, schedule: Q04DX003 (ip), vehicle: saline 98 % of control

NNC(=O)c1nnc(NN)[nH]c1=O
inactive: endpoint: mean survival time, dose: 100.0 mg/kg/injection, schedule: Q01DX001 (ip), vehicle: carboxymethylcellulose (CMC) 102 % of control | endpoint: mean survival time, dose: 200.0 mg/kg/injection, schedule: Q01DX001 (ip), vehicle: carboxymethylcellulose (CMC) 100 % of control | endpoint: mean survival time, dose: 400.0 mg/kg/injection, schedule: Q01DX001 (ip), vehicle: carboxymethylcellulose (CMC) 93 % of control

CCOC(=O)CCOc1ccccc1N(CCCl)CCCl
inactive: [1] 87 % of control

CCOC(=O)CC(=O)c1c(C)cc(C)c(Br)c1C
inactive: [4] 97 % of control | [6] 92 % of control

CC(C)N1C(=O)[N+](C)(C)N=C1[O-]
inactive: endpoint: mean survival time, dose: 100.0 mg/kg/injection, schedule: Q01DX001 (ip), vehicle: saline with Tween-80 103 % of control | [1] 89 % of control | endpoint: mean survival time, dose: 200.0 mg/kg/injection, schedule: Q01DX001 (ip), vehicle: saline with Tween-80 101 % of control | [3] 97 % of control | endpoint: mean survival time, dose: 400.0 mg/kg/injection, schedule: Q01DX001 (ip), vehicle: saline with Tween-80 104 % of control | [5] 101 % of control

O=C(OC1CCC(c2ccccc2)C1)c1cc([N+](=O)[O-])cc([N+](=O)[O-])c1 (centres undefined)
inactive: endpoint: mean survival time, dose: 75.0 mg/kg/injection, schedule: Q01DX001 (ip), vehicle: other 92 % of control | endpoint: mean survival time, dose: 150.0 mg/kg/injection, schedule: Q01DX001 (ip), vehicle: other 92 % of control | endpoint: mean survival time, dose: 300.0 mg/kg/injection, schedule: Q01DX001 (ip), vehicle: other 92 % of control

CCCN(CCC)c1c([N+](=O)[O-])cc(C(N)=O)cc1[N+](=O)[O-]
inactive: [8] 96 % of control | [9] 96 % of control | [7] 90 % of control

OCCCl
inactive: endpoint: mean survival time, dose: 75.0 mg/kg/injection, schedule: Q01DX001 (ip), vehicle: saline 104 % of control | endpoint: mean survival time, dose: 150.0 mg/kg/injection, schedule: Q01DX001 (ip), vehicle: saline 103 % of control

BrC1CCCCCC12OCCO2 (centres undefined)
inactive: [2] 86 % of control | [4] 94 % of control | [6] 89 % of control
